Reference: paper PMC6615261, “Repurposing Azithromycin and Rifampicin Against Gram-Negative Pathogens by Combination With Peptidomimetics” (Frontiers in Cellular and Infection Microbiology, 2019)
Where two headings read alike, the source gives them in different places.

Key:
[1] = tested on: MDR E. coli ST131; test: Screening of peptidomimetic-antibiotic combinations (growth / growth inhibition); format: cell-based, Escherichia coli; set-up: key to Growth in combination with RIF / Growth in combination with AZM: Growth (+); growth inhibition (–)
[2] = tested on: K. pneumoniae clinical isolates and reference strains; test: MIC of fixed-ratio peptidomimetic 1-antibiotic combinations in clinical isolates and reference strains; format: cell-based, Klebsiella pneumoniae; settings: with rifampicin or azithromycin
Source text: Bacterial strains used in this study comprise MDR clinical isolates of E. coli ST131 (Cerquetti et al., [2010]) and K. pneumoniae ST258 (Jana et al., [2017]), and American type culture collection (ATCC) strains: ATCC 25922 (E. coli), ATCC 13883 (K. pneumoniae), and ATCC 27853 (P. aeruginosa). Additional clinical isolates of E. coli, K. pneumoniae, and P. aeruginosa resistant to β-lactams (including carbapenems and cephalosporins) were provided by Laurent Poirel, Université de Fribourg, Switzerland. The following growth media was routinely used for bacterial culturing: Luria-Burtani (LB), cation-adjusted Mueller-Hinton agar (MHA) and broth (MHB II). All assays were performed in cation-adjusted MHA or MHB II. […]
Minimal inhibitory concentrations (MICs) of peptidomimetics, antibiotics and their combinations were determined by broth microdilution according to the Clinical Laboratory Standards Institute performance standards (Clinical and Laboratory Standards Institute, [2013]). […] Potentiation of additional antibiotics by peptidomimetics was determined by using commercial 96-well plates containing varied concentrations of standard antibiotics (COMPAN1F; Trek Diagnostic Systems Inc.). The peptidomimetics were added immediately prior to inoculation with pathogen, and then MICs were determined as above. […] Minimal bactericidal concentrations (MBCs) were determined by using growth-curve assay plates. […]

[3] = tested on: P. aeruginosa ATCC 27853
Procedure, shortened: (§1)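 Two-dimensional checkerboard broth microdilution in MHB II, with twofold dilutions of peptidomimetic and antibiotic on crossed axes and 18–20 h incubation per CLSI. FICI = MICA(A+B)/MICA(alone) + MICB(A+B)/MICB(alone); ≤0.5 is interpreted as synergy.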

[4] = tested on: K. pneumoniae ST258
Procedure, shortened: as §1

[5] = tested on: E. coli ST131
Procedure, shortened: as §1

[6] = MIC of azithromycin combined with the labelled peptidomimetic
[7] = MIC of rifampicin combined with the labelled peptidomimetic

NCCCC[C@H](NC(=O)CCN(Cc1ccccc1)C(=O)[C@H](CCCCN)NC(=O)CCN(Cc1ccccc1)C(=O)[C@H](CCCCN)NC(=O)CCN(Cc1ccccc1)C(=O)[C@H](CCCCN)NC(=O)CCN(Cc1ccccc1)C(=O)[C@H](CCCCN)NC(=O)CCN(Cc1ccccc1)C(=O)[C@H](CCCCN)NC(=O)CCN(Cc1ccccc1)C(=O)[C@H](CCCCN)NC(=O)CCN(Cc1ccccc1)C(=O)[C@@H](N)CCCCN)C(=O)N(CCC(N)=O)Cc1ccccc1 [Peptidomimetic 1, H-(Lys-βNPhe)8-NH2]
Screening result with rifampicin ([1]; 0.5 μM peptidomimetic + 0.5 μg/mL rifampicin): inhibit growth
Screening result with azithromycin ([1]; 0.5 μM peptidomimetic + 1 μg/mL azithromycin): prevented growth
Growth in combination with AZM ([1]; peptidomimetic 0.5 μM + azithromycin 1 μg/mL): –
Growth in combination with RIF ([1]; peptidomimetic 0.5 μM + rifampicin 0.5 μg/mL): –
Peptidomimetic concentration required to induce susceptibility, three K. pneumoniae isolates [2]: 2 to 8 µM
Antibiotic MIC in combination (RIF) ([3]; P. aeruginosa ATCC 27853, MIC of rifampicin combined with the labelled peptidomimetic): 1 µg/mL
Peptidomimetic MIC alone ([3]; P. aeruginosa ATCC 27853, checkerboard): 1 µM
Peptidomimetic MIC in combination ([3]; P. aeruginosa ATCC 27853, combined with AZM): 0.25 µM
Peptidomimetic MIC in combination ([3]; P. aeruginosa ATCC 27853, combined with RIF): 0.25 µM
Reduction of the MIC of azithromycin ([3]; P. aeruginosa, sub-MIC concentrations of peptidomimetic): 32- to 512 fold
Antibiotic MIC in combination (AZM) [4, 6]: 4 µg/mL
Antibiotic MIC in combination (RIF) [4, 7]: 0.25 µg/mL
Peptidomimetic MIC alone ([4]; checkerboard): 16 µM
Peptidomimetic MIC in combination ([4]; combined with AZM): 0.5 µM
Peptidomimetic MIC in combination ([4]; combined with RIF): 0.5 µM
Antibiotic MIC in combination (AZM) [5, 6]: 1 µg/mL
Antibiotic MIC in combination (RIF) [5, 7]: 0.06 µg/mL
Peptidomimetic MIC alone ([5]; checkerboard): 2 µM
Peptidomimetic MIC in combination ([5]; combined with AZM): 0.25 µM
Peptidomimetic MIC in combination ([5]; combined with RIF): 0.5 µM
